# Values of other authors as cited in patent US6559165B1, “Methods for treating bulimia using optically pure (−) norcisapride” (priority 1998, dated 2003).
# Tests used:
# [1] = co-administration with ketoconazole
smiles,measurement,setting,value
"COc1cc(N)c(Cl)cc1C(=O)N[C@H]1CCN(CCCOc2ccc(F)cc2)C[C@H]1OC (racemic) [(±) Cisapride, cis-4-amino-5-chloro-N-[1-[3-(4-fluorophenoxy)propyl]-3-methoxy-4-piperidinyl]-2-methoxybenzamide]",portion of dose metabolized,"humans, oxidative N-dealkylation or aromatic hydroxylation",More than 90%
same,bioavailability,"oral administration to humans, rapid first-pass metabolism in the liver",40-50%
same,increase of steady-state plasma levels,[1],8 fold
